Reference: patent publication US20110158924A1, “PHOTO-PROTECTIVE DERMATOLOGICAL FORMULATIONS” (DermaPlus, Inc., priority 2007, published 2011)
Like-named read-outs stand apart in the source and are kept apart here.

Legend:
P5CR = P5CR (Homo sapiens, UniProt Q96C36); conditions: read-out: Km for P5CR activity; extracts of HEK 293 cells overexpressing P5CR, substrate P5C
Method: (§1) P5CS activity was measured in a reaction mixture of 50 mM Tris-HCl (pH 7.0), 0-50 mM glutamate, […], 10 mM ATP, and 0.2 mM NADPH and by monitoring the oxidation of NADPH at 340 nm. P5CR activity in the cell lysate was also determined by monitoring the oxidation of NADPH at 340 nm as described in Merrill, M. J., Yeh, G. C., and Phang, J. M. (1989) J. Biol. Chem. 264, 9352-9358, which reference is incorporated herein by reference in its entirety. Background rates for each of the above assays were determined from assays using lysates of HEK 293 cells transfected with the pcDNA3.1 vector alone. Km values for each enzyme activity were estimated by varying the concentration of the substrates and non-linear regression analysis of the initial velocity vs substrate concentration.

HEK 293 cells [1] = assay: Cell survival of HEK 293 cells after H2O2 stress treatment (MTT assay); assay type: cell-based, human; conditions: for viability at 5000 µM: Homo sapiens, read-out: Cell Survival (%); for protection of cell survival against H2O2 exposure (in words): 0.5 mM H2O2, 3 h
Method: For stress treatments, HEK 293 cells were grown to about 80% confluence. […] For testing the protective ability of other amino acids, cells were treated for 3 h with 0.5 mM H2O2 in the absence and presence of each amino acid (5 mM). Cells overexpressing PRODH, P5CS, and P5CR were incubated with H2O2 (0.5 mM) for 3 h at 37° C. after 24 h of transfection. Mild oxidative stress treatment was performed by treating HEK 293 cells with 20 μM H2O2 for 0-24 h at 37° C. […] Percent cell survival was estimated by counting live and dead cells using the 3-(4,5-dimethylthiazol-2-yl)-2,5-diphenyltetrazolium bromide (MTT) assay according to the recommendations of the manufacturer (Promega).

P5CS = P5CS (Homo sapiens, UniProt P54886); conditions: read-out: Km for P5CS activity; extracts of HEK 293 cells overexpressing P5CS, substrate glutamate
Sequence of P5CS (P54886 1-793 isoform P54886-2): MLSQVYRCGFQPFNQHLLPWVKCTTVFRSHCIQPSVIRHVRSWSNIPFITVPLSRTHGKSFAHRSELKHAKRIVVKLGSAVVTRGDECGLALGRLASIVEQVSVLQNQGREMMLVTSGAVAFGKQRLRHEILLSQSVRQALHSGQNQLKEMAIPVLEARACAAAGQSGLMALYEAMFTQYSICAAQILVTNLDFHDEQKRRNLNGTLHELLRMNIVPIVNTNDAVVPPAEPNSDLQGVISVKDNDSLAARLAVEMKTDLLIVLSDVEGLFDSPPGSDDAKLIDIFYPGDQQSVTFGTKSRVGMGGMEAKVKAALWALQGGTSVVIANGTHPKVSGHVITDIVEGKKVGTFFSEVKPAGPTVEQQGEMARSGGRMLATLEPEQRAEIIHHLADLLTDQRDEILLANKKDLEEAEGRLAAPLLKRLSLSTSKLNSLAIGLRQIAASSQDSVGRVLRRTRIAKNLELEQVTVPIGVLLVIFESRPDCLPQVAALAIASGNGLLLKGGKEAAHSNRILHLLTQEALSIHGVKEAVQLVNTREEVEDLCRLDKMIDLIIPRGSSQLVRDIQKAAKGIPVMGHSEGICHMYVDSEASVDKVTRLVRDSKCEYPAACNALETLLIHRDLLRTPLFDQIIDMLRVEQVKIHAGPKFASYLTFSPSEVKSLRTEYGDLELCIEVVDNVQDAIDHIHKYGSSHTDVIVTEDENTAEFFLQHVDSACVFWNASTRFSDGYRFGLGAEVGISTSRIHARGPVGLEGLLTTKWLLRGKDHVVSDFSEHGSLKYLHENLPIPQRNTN
Method: as §1

HEK 293 cells [2] = conditions: H2O2 1 mM for 3 and 6 h, 5 mM proline
Method: The cell pellets were resuspended in 0.4 ml of 100 mM Tris-HCl (pH 8.5) containing 0.2% SDS, 0.2 mg/ml proteinase K and 5 mM EDTA. The cells were then incubated at 37° C. for 16 h. NaCl was next added to the cell suspension at a final concentration of 1.5 M and the nuclear debris was removed by centrifugation at room temperature. The nucleic acids in the supernatant were then precipitated using established protocols. DNA samples were analyzed by non-denaturing agarose gel electrophoresis (1.5%) and visualized by ethidium bromide staining.

HEK 293 cells [3] = conditions: H2O2 1 mM, proline 5 mM; H2O2 alone 55%, no stress 6%
Method: Intracellular ROS levels in HEK 293 cells were evaluated before and after H2O2 treatment by incubating PBS washed cells for 10 min with dichlorodihydrofluorescein diacetate (DCHF-DA) (20 μM) (Molecular Probes).
Quantitative ROS measurements were performed using flow cytometry. After oxidative stress treatment as described above, cells (5×10^5) were washed with PBS and incubated with DCHF-DA (0.1 mM) for 15 min in the dark at room temperature. Cells were then washed twice with PBS to remove excess DCHF-DA and resuspended in PBS containing 10 mM EDTA. The cells were then analyzed using FACScan flow cytometry (Becton-Dickinson, San Jose, Calif.). The mean fluorescence channel of each sample was calculated using FACS-equipped […] ® software and is reported as the percent fluorescence observed in the live cell population. In each assay, matching cells not treated with DCHF-DA served as a control.

[4] = substrate: O=C(O)[C@@H]1CCCN1; assay: cells, lysate or membranes named; conditions: other: extracts of HEK 293 cells overexpressing PRODH, substrate proline; pH 7.0
[5] = HEK293, amino acid supplement 5 mM, 0.5 mM H2O2 for 3 h at 37° C., MTT, no supplement 39, control without H2O2 97
[6] = HEK293, 3 h, amino acid supplement 5 mM, 0.5 mM H2O2 for 3 h at 37° C., MTT, no supplement 39, control without H2O2 97

Sequence of P5CR (Q96C36 whole entry): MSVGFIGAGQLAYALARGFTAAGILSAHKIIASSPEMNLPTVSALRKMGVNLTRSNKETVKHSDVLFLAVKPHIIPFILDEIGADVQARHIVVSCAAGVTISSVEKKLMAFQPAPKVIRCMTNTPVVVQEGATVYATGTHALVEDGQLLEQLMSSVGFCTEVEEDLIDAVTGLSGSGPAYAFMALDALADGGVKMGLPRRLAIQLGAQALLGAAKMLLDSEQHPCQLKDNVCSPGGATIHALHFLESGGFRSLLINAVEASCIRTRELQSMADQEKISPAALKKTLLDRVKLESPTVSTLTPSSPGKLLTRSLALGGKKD

Molecule: O=C(O)C1CCC=N1 (stereo not drawn) [P5C]
- Km (P5CR): 15 mM

Molecule: C[C@H](N)C(=O)O [alanine, reference compound]
- viability at 5000 µM (HEK 293 cells [1]; [5]): 48%

Molecule: N=C(N)NCCC[C@H](N)C(=O)O [arginine, reference compound]
- viability at 5000 µM (HEK 293 cells [1]; HEK293, 3 h): 50%

Molecule: NC(=O)C[C@H](N)C(=O)O [asparagine, reference compound]
- viability at 5000 µM (HEK 293 cells [1]; [5]): 48%

Molecule: N[C@@H](CC(=O)O)C(=O)O [aspartate, reference compound]
- viability at 5000 µM (HEK 293 cells [1]; [5]): 35%

Molecule: N[C@@H](CS)C(=O)O [cysteine]
- viability at 5000 µM (HEK 293 cells [1]; HEK293, 3 h): 68%
- protection of cell survival against H2O2 exposure (in words) (HEK 293 cells [1]; amino acid supplement 5 mM): increase cell survival to almost the same level as proline

Molecule: N[C@@H](CCC(=O)O)C(=O)O [glutamate, reference compound]
- Km (P5CS): ~20 mM
- Cell Survival (%) (HEK 293 cells [1]; amino acid supplement 5 mM, 0.5 mM H2O2 for 3 h at 37° C., MTT, no supplement 39, control without H2O2 97): 35%

Molecule: NC(=O)CC[C@H](N)C(=O)O [glutamine, reference compound]
- viability at 5000 µM (HEK 293 cells [1]; [5]): 49%

Molecule: NCC(=O)O [glycine, reference compound]
- viability at 5000 µM (HEK 293 cells [1]; [6]): 33%

Molecule: N[C@@H](Cc1c[nH]cn1)C(=O)O [histidine]
- viability at 5000 µM (HEK 293 cells [1]; [5]): 58%
- protection of cell survival against H2O2 exposure (in words) (HEK 293 cells [1]; amino acid supplement 5 mM): protection against H2O2 exposure

Molecule: CC[C@H](C)[C@H](N)C(=O)O [isoleucine, reference compound]
- viability at 5000 µM (HEK 293 cells [1]; [5]): 42%

Molecule: CC(C)C[C@H](N)C(=O)O [leucine, reference compound]
- viability at 5000 µM (HEK 293 cells [1]; [5]): 43%

Molecule: NCCCC[C@H](N)C(=O)O [lysine]
- viability at 5000 µM (HEK 293 cells [1]; HEK293, 3 h): 54%

Molecule: CSCC[C@H](N)C(=O)O [methionine]
- viability at 5000 µM (HEK 293 cells [1]; [6]): 57%
- protection of cell survival against H2O2 exposure (in words) (HEK 293 cells [1]; amino acid supplement 5 mM): protection against H2O2 exposure

Molecule: N[C@@H](Cc1ccccc1)C(=O)O [phenylalanine]
- viability at 5000 µM (HEK 293 cells [1]; [5]): 51%

Molecule: O=C(O)[C@@H]1CCCN1 [proline]
- DNA laddering induced by H2O2 (HEK 293 cells [2]): lack of DNA laddering
- viability at 5000 µM (HEK 293 cells [1]; [6]): ~77%
- cell fluorescence levels (fluorescent positives, indicative of ROS) (HEK 293 cells [3]): 10%

Molecule: N[C@@H](CO)C(=O)O [serine]
- viability at 5000 µM (HEK 293 cells [1]; [5]): 58%

Molecule: C[C@@H](O)[C@H](N)C(=O)O [threonine]
- viability at 5000 µM (HEK 293 cells [1]; [5]): 59%
- protection of cell survival against H2O2 exposure (in words) (HEK 293 cells [1]; amino acid supplement 5 mM): protection against H2O2 exposure

Molecule: N[C@@H](Cc1c[nH]c2ccccc12)C(=O)O [tryptophan]
- viability at 5000 µM (HEK 293 cells [1]; HEK293, 3 h): 66%
- protection of cell survival against H2O2 exposure (in words) (HEK 293 cells [1]; amino acid supplement 5 mM): increase cell survival to almost the same level as proline

Molecule: N[C@@H](Cc1ccc(O)cc1)C(=O)O [tyrosine, reference compound]
- viability at 5000 µM (HEK 293 cells [1]; [5]): 41%

Molecule: CC(C)[C@H](N)C(=O)O [valine, reference compound]
- viability at 5000 µM (HEK 293 cells [1]; [5]): 44%

B1: PRODH (Homo sapiens) (protein)
chain: MALRRALPALRPCIPRFVPLSTAPASREQPAAGPAAVPGGGSATAVRPPVPAVDFGNAQEAYRSRRTWELARSLLVLRLCAWPALLARHEQLLYVSRKLLGQRLFNKLMKMTFYGHFVAGEDQESIQPLLRHYRAFGVSAILDYGVEEDLSPEEAEHKEMESCTSAAERDGSGTNKRDKQYQAHWAFGDRRNGVISARTYFYANEAKCDSHMETFLRCIEASGRVSDDGFIAIKLTALGRPQFLLQFSEVLAKWRCFFHQMAVEQGQAGLAAMDTKLEVAVLQESVAKLGIASRAEIEDWFTAETLGVSGTMDLLDWSSLIDSRTKLSKHLVVPNAQTGQLEPLLSRFTEEEELQMTRMLQRMDVLAKKATEMGVRLMVDAEQTYFQPAISRLTLEMQRKFNVEKPLIFNTYQCYLKDAYDNVTLDVELARREGWCFGAKLVRGAYLAQERARAAEIGYEDPINPTYEATNAMYHRCLDYVLEELKHNAKAKVMVASHNEDTVRFALRRMEELGLHPADHRVYFGQLLGMCDQISFPLGQAGYPVYKYVPYGPVMEVLPYLSRRALENSSLMKGTHRERQLLWLELLRRLRTGNLFHRPA
- Km [4]: 14 ± 0.5 mM
